Experimental data as given in patent EP2108954A1, “A test system for detecting intracellular cyclic nucleotide level and methods and uses thereof” (Max-Planck-Gesellschaft zur Förderung der Wissenschaften …, priority 2008, dated 2009).

Tested on: hCNGA2
Test: Calcium imaging (fura-2) in HEK293 cells expressing hCNGA2 and Or22a
Format: cell-based, human
Settings: most prominent near the plasma membrane (Fig. 5d)
Experimental: Free intracellular Ca^2+ concentration ([Ca^2+]i) was determined by fura-2 fluorescence as described (Messutat et al., Cell Calcium 30, 199-211. (2001)). In brief, cells were loaded with fura-2 by incubation in bath solution containing 2 µM fura-2/acetomethylester for 20 min. Free intracellular Ca^2+ concentration ([Ca^2+]i) was determined with the fluorescence ratio method. Excitation of fura-2 at 340 and 380 nm was performed with a monochromator (Polychrome II, T.I.L.L. Photonics, Gräfelfing, Germany) coupled via an epifluorescence condenser into an Axioskop FS microscope (Carl Zeiss, Jena, Germany) with a water immersion objective (LUMPFL 40xW/IR/0.8; Olympus, Hamburg, Germany). […] [Ca^2+]i was calculated according to the equation [Ca^(2 +)]i = Keff (R-Rmin)/(Rmax-R). […] Keff, Rmin, and Rmax were determined using HEK293 cells permeabilized with 2 µM ionomycin and three solutions with different concentrations of free Ca^2+ (Ca^2+ free; 5 mM Ca^2+; 500 nM Ca^2+; the composition of the 500 nM solution was calculated with WEBMAXC v.2.20) (Patton et al., Cell Calcium 35, 427-31 (2004)). […]
Fluorescence images were acquired using a cooled CCD camera controlled by TILLVision 4.0 software (T.I.L.L. Photonics). […] Image pairs were obtained by excitation for 100 ms at 340 nm and 380 nm; background fluorescence was subtracted.

CCCC(=O)OCC [Etb, ethyl butyrate]
[Ca^2+]i: produced an increase in [Ca^2+]i
